The subject of assay [1] is normal mice. The assay can be described thus: Hypoglycemic effect of synthetic polypeptides on normal mice after subcutaneous injection (Example 9). The format is in vivo, Kunming white mice. Conditions: 1 mg/mL at 0.05 ml/10 g, single subcutaneous injection on the back; for Blood glucose level prior to administration: baseline.
The test system of assay [2] is normal mice. The assay is described as follows: Hypoglycemic effect on normal mice after subcutaneous injection on the back (Example 5). The format is in vivo, Kunming white mice. Conditions: for Blood glucose level at 15 min after administration / Blood glucose level at 30 min after administration / Blood glucose level at 45 min after administration / Blood glucose level at 60 min after administration / Blood glucose level prior to administration: single subcutaneous injection on the back; for Blood glucose level prior to administration: baseline.

Setting [3] is: Group A high-dose, 1 mg/mL at 0.10 ml/10 g.
The mark [4] stands for this setting: Group B medium-dose, 1 mg/mL at 0.05 ml/10 g.
Where [5] appears, read: Group C low-dose, 1 mg/mL at 0.025 ml/10 g.

Bridge positions count the residues as written; N and C are the ends. Square brackets hold non-standard residues; d marks the D form. Ends that are not written are not given here. Met(O) = CS(=O)CC[C@H](N)C(=O)O

For the substance “ISCNGVCSPFEIPPCGSSLCRCIPAGLLVGKCRNPSG (disulfide 15-32, 3-20, 7-22) [SEQ ID No. 44]”, in assay [1], the “Blood glucose level at 15 min after administration” value (“Blood glucose level at 15 min” for short) came to 6.3 ± 0.3 mmol/L, the “Blood glucose level at 30 min after administration” value (“Blood glucose level at 30 min” below) turned out to be 5.5 ± 0.2 mmol/L, the “Blood glucose level at 45 min after administration” value (shortened to “Blood glucose level at 45 min”) was 3.8 ± 0.3 mmol/L and the “Blood glucose level at 60 min after administration” value (“Blood glucose level at 60 min” for short) is 2.6 ± 0.2 mmol/L. In addition, the “Blood glucose level prior to administration” value (“Blood glucose level prior” below) in assay [1] was determined as 7.2 ± 0.3 mmol/L.
For “ASCNGVCSPFEIPPCGSPLCRCIPVGLVIGNCRNPYG (disulfide 15-32, 3-20, 7-22) [SEQ ID No. 21]” the same measures were 6.7 ± 0.4 mmol/L, 5.2 ± 0.3 mmol/L, 4.3 ± 0.2 mmol/L, 3.6 ± 0.1 mmol/L and 7.8 ± 0.4 mmol/L.
For “ASCNGVCSPFDIPPCGTPLCRCIPVGLVIGNCRNPYG (disulfide 15-32, 3-20, 7-22) [SEQ ID No. 13]” the same measures were 6.1 ± 0.3 mmol/L, 4.4 ± 0.4 mmol/L, 3.5 ± 0.3 mmol/L, 2.6 ± 0.3 mmol/L and 7.4 ± 0.6 mmol/L.
For “ASCNGVCSPFDMPPCGTSACRCIPAGLFIGKCRNPYG (disulfide 15-32, 3-20, 7-22) [SEQ ID No. 17]” the same measures were 6.6 ± 0.5 mmol/L, 4.9 ± 0.4 mmol/L, 3.6 ± 0.3 mmol/L, 3.0 ± 0.2 mmol/L and 8.2 ± 0.7 mmol/L.
For the substance “ISCNGVCSPFDIPPCGTPLCRCIPAGLFVGKCRNPYG (disulfide 15-32, 3-20, 7-22) [SEQ ID No. 36]”, in assay [1], the “Blood glucose level at 15 min” value is reported as 6.2 ± 0.4 mmol/L, the “Blood glucose level at 30 min” value is listed as 4.3 ± 0.3 mmol/L, the “Blood glucose level at 45 min” value came to 3.5 ± 0.2 mmol/L and the “Blood glucose level at 60 min” value is 2.8 ± 0.1 mmol/L. The “Blood glucose level prior” value in assay [1] came out at 7.1 ± 0.5 mmol/L.
“VSCNGVCSPFDIPPCGTPACRCIPYGLFVGNCRNPYG (disulfide 15-32, 3-20, 7-22) [SEQ ID No. 52]”: in assay [1], the “Blood glucose level at 15 min” value came to 6.4 ± 0.4 mmol/L, the “Blood glucose level at 30 min” value came out at 5.4 ± 0.5 mmol/L, the “Blood glucose level at 45 min” value is listed as 4.3 ± 0.3 mmol/L and the “Blood glucose level at 60 min” value is 2.9 ± 0.3 mmol/L. In addition, the “Blood glucose level prior” value in assay [1] is given as 7.1 ± 0.3 mmol/L.
For “VSCNGVCSPFDMPPCGTSACRCIPAGLFIGYCRNPSG (disulfide 15-32, 3-20, 7-22) [SEQ ID No. 61]” the same measures were 5.6 ± 0.4 mmol/L, 4.3 ± 0.3 mmol/L, 3.6 ± 0.2 mmol/L, 2.3 ± 0.1 mmol/L and 6.9 ± 0.4 mmol/L.
For “ISCNGVCSPFEMPPCGTSLCRCIPAGLVVGYCRNPSG (disulfide 15-32, 3-20, 7-22) [SEQ ID No. 50]” the same measures were 6.2 ± 0.5 mmol/L, 5.3 ± 0.2 mmol/L, 4.6 ± 0.3 mmol/L, 3.2 ± 0.3 mmol/L and 7.3 ± 0.6 mmol/L.
Consider “VSCNGVCSPFEMPPCGSSACRCIPYGLVVGNCRNPSG (disulfide 15-32, 3-20, 7-22) [SEQ ID No. 68]”, for which, in assay [1], the “Blood glucose level at 15 min” value is reported as 5.5 ± 0.4 mmol/L, the “Blood glucose level at 30 min” value amounted to 4.2 ± 0.3 mmol/L, the “Blood glucose level at 45 min” value came to 3.4 ± 0.4 mmol/L and the “Blood glucose level at 60 min” value is 2.2 ± 0.1 mmol/L. For the same substance, the “Blood glucose level prior” value in assay [1] is given as 6.7 ± 0.6 mmol/L.
On to “ASCNGVCSPFEMoxPPCGTSACRCIPVGLFIGYCRNPSG (ASCNGVCSPFE[Met(O)]PPCGTSACRCIPVGLFIGYCRNPSG; disulfide 15-32, 3-20, 7-22; listed as Pisum sativum) [SEQ ID No. 8]”, for which, in assay [2] (setting [3]), the “Blood glucose level at 15 min” value stood at 5.1 ± 0.4 mmol/L, the “Blood glucose level at 30 min” value turned out to be 3.0 ± 0.4 mmol/L, the “Blood glucose level at 45 min” value was 2.2 ± 0.2 mmol/L and the “Blood glucose level at 60 min” value turned out to be 1.7 ± 0.1 mmol/L. The “Blood glucose level prior” value in assay [2] (setting [3]) was found to be 7.4 ± 0.5 mmol/L. Also, in assay [2] (setting [4]), the “Blood glucose level at 15 min” value is recorded as 5.2 ± 0.4 mmol/L, the “Blood glucose level at 30 min” value was 4.3 ± 0.5 mmol/L, the “Blood glucose level at 45 min” value turned out to be 3.2 ± 0.3 mmol/L and the “Blood glucose level at 60 min” value was determined as 2.6 ± 0.2 mmol/L. The “Blood glucose level prior” value in assay [2] (setting [4]) turned out to be 7.1 ± 0.6 mmol/L. In assay [2] (setting [5]), the “Blood glucose level at 15 min” value was 6.2 ± 0.3 mmol/L, the “Blood glucose level at 30 min” value is reported as 4.9 ± 0.3 mmol/L, the “Blood glucose level at 45 min” value came out at 3.8 ± 0.2 mmol/L and the “Blood glucose level at 60 min” value is given as 4.6 ± 0.2 mmol/L. In assay [2] (setting [5]), the “Blood glucose level prior” value came out at 7.3 ± 0.4 mmol/L. Also, in assay [2] (normal mice, subcutaneous injection), the “hypoglycemic activity (conclusion)” value is listed as “explicit hypoglycemic activity”.
Regarding “ISCNGVCSPFDMPPCGSPACRCIPAGLLIGYCRNPSG (disulfide 15-32, 3-20, 7-22) [SEQ ID No. 38]”, in assay [1], the “Blood glucose level at 15 min” value stood at 4.9 ± 0.3 mmol/L, the “Blood glucose level at 30 min” value is recorded as 3.6 ± 0.4 mmol/L, the “Blood glucose level at 45 min” value is listed as 3.1 ± 0.2 mmol/L and the “Blood glucose level at 60 min” value came out at 3.5 ± 0.3 mmol/L. The “Blood glucose level prior” value in assay [1] was determined as 6.3 ± 0.5 mmol/L.
Turning to “VSCNGVCSPFEIPPCGSPLCRCIPAGLVIGNCRNPYG (disulfide 15-32, 3-20, 7-22) [SEQ ID No. 63]”, in assay [1], the “Blood glucose level at 15 min” value was 5.9 ± 0.5 mmol/L, the “Blood glucose level at 30 min” value came to 4.6 ± 0.4 mmol/L, the “Blood glucose level at 45 min” value turned out to be 3.2 ± 0.3 mmol/L and the “Blood glucose level at 60 min” value came to 3.5 ± 0.2 mmol/L. In addition, in assay [1], the “Blood glucose level prior” value amounted to 6.6 ± 0.6 mmol/L.
